Data set [1] deals with recombinant wild-type M. bovis BCG PTA (Mycobacterium bovis, UniProt A0A679LAX5). The experiment in a line: biochemical. Format: biochemical.
The next data set has as its system M. smegmatis mc^2 155. As to the kind of experiment: microbe, parasite or virus in culture. Format: cell-based, Mycobacterium smegmatis.
The subject of another data set is OCT313-resistant BCG. As to the kind of experiment: microbe, parasite or virus in culture. The class given is cell-based, Mycobacterium bovis BCG.
In another data set the test system is Staphylococcus aureus. The experiment in a line: microbe, parasite or virus in culture. The class given is cell-based.
The next data set relates to M. bovis. As to the kind of experiment: microbe, parasite or virus in culture. Format: cell-based, Mycobacterium bovis.
The test system of the next data set is Escherichia coli DH5α. As to the kind of experiment: microbe, parasite or virus in culture. Format: cell-based.
The subject of the next data set is M. tuberculosis H37Rv. The experiment in a line: microbe, parasite or virus in culture. The class given is cell-based, Mycobacterium tuberculosis.
Data set [2] concerns M. bovis BCG Tokyo 172. As to the kind of experiment: microbe, parasite or virus in culture. Format: cell-based, Mycobacterium bovis BCG.
Data set [3] deals with OCT313-resistant BCG strains OCTR_3 and OCTR_4. Format: cell-based, Mycobacterium bovis BCG.
The next data set concerns MRC-5. The conditions noted are these: human.
The test system of a further data set is THP-1. The settings on record: human.
For another data set, the system named is A549. The settings on record: human.
Another data set deals with M. avium 104. The experiment in a line: microbe, parasite or virus in culture. Format: cell-based, Mycobacterium avium.
The subject of data set [4] is M. bovis BCG Tokyo 172. The class given is cell-based, Mycobacterium bovis BCG.
The target in the next data set is L. mesenteroides PTA (Leuconostoc mesenteroides, UniProt Q03W64). Format: biochemical.
Where [5] appears, read: Mycolicibacterium smegmatis, MC^2155, 72 h.
[6] abbreviates: Mycobacterium tuberculosis variant bovis BCG, BCG, 336 h.
[7] abbreviates: Mycobacterium tuberculosis variant bovis, 336 h.
The mark [8] stands for this setting: Mycobacterium avium, 104, 168 h.
[9] abbreviates: Mycobacterium tuberculosis, H37RV.
Setting [10] is: Mycobacterium tuberculosis, H37RV, 336 h.

Converted amounts (≈) assume the structure as drawn. Where two headings read alike, the source gives them in different places.

Sequence of recombinant wild-type M. bovis BCG PTA (A0A679LAX5 1-690): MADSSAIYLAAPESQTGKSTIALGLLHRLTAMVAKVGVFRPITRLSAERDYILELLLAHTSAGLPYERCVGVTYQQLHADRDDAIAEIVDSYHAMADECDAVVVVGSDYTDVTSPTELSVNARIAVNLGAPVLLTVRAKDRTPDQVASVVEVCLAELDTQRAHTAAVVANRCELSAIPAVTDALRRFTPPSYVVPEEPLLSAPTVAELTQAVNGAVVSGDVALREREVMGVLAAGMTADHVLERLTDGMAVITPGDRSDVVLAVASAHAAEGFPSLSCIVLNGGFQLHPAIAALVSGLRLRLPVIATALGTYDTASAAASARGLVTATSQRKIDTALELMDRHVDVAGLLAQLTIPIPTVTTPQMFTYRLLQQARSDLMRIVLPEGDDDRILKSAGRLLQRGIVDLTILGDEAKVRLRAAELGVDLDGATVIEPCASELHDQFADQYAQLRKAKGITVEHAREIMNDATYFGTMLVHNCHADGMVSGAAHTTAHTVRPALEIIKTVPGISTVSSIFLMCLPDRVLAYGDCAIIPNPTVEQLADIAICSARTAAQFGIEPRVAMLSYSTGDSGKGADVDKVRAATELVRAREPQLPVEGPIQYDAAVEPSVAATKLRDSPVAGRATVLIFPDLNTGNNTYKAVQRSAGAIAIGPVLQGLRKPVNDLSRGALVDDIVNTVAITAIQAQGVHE
Sequence of L. mesenteroides PTA (Q03W64 1-326): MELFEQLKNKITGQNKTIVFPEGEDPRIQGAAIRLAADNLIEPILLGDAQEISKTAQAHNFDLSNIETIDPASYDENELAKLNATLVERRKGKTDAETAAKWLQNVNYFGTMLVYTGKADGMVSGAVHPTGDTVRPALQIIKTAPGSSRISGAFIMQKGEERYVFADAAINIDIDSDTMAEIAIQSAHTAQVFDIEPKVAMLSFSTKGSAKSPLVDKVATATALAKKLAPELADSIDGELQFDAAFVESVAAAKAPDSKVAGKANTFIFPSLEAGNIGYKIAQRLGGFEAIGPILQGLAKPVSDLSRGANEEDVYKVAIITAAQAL

With Dimethyldithiocarbamate [DMDC], the “Inhibition of PTA enzyme activity (in words)” value in data set [1] was “did not inhibit PTA”. Further, the MIC with M. smegmatis mc^2 155 is above 100 µg/mL; in the data set with OCT313-resistant BCG it was 12.5 µg/mL; in the data set on Staphylococcus aureus, 25 µg/mL; against M. bovis, 3.13 µg/mL; in the data set on Escherichia coli DH5α it was 200 µg/mL; in the data set with M. tuberculosis H37Rv it was 1.56 µg/mL. The compound further had an MIC in the data set with M. bovis BCG Tokyo 172 [2] of 3.13 µg/mL. Further, the “Antibacterial activity in Wayne dormancy model” value (“Antibacterial activity” below) in data set [3] was “similar”.

For the compound `CC[C@@H](CO)NCCN[C@@H](CC)CO` [EB, ethambutol], the 85% survival conc. in the data set with MRC-5 is 250 µg/mL; in the data set on THP-1, 500 µg/mL; in the data set on A549 it was 1,000 μg/mL. Further, the LC50/MIC with MRC-5 is given as 111; in the data set with THP-1, 916; in the data set on A549 it was 1,434. The MIC was 12.5 µg/mL (≈ 61.2 µM) against M. smegmatis mc^2 155 (setting [5]); 3 µg/mL (≈ 14.7 µM) with OCT313-resistant BCG (setting [6]); above 100 µg/mL in the data set with Staphylococcus aureus (Staphylococcus aureus); 0.78 µg/mL (≈ 3.82 µM) in the data set with M. bovis (setting [7]); 1.6 µg/mL (≈ 7.83 µM) against M. avium 104 (setting [8]); above 100 µg/mL with Escherichia coli DH5α (Escherichia coli). Moreover, the MIC in the data set on M. tuberculosis H37Rv (setting [9]) stood at 2.5 µg/mL (≈ 12.2 µM); in the data set with M. tuberculosis H37Rv (setting [10]) it was 2.5 µg/mL (≈ 12.2 µM); with M. bovis BCG Tokyo 172 [2] (setting [6]), 3 µg/mL (≈ 14.7 µM).

Consider `CO[C@H]1/C=C/O[C@@]2(C)Oc3c(C)c(O)c4c(O)c(c(/C=N/N5CCN(C)CC5)c(O)c4c3C2=O)NC(=O)/C(C)=C\C=C\[C@H](C)[C@H](O)[C@@H](C)[C@@H](O)[C@@H](C)[C@H](OC(C)=O)[C@@H]1C` [RFP, rifampicin], for which the 85% survival conc. in the data set on MRC-5, with THP-1 and with A549 was 10 µg/mL in each case. The LC50/MIC is on record as 16,250 in the data set with MRC-5, 16,256 in the data set with THP-1 and 44,510 in the data set with A549. For the same compound, the MIC against M. smegmatis mc^2 155 (setting [5]) is 1.56 µg/mL (≈ 1.9 µM); against OCT313-resistant BCG (setting [6]), 0.01 µg/mL (≈ 0.0122 µM); against Staphylococcus aureus (Staphylococcus aureus), 0.02 µg/mL (≈ 0.0243 µM); in the data set on M. bovis (setting [7]), 0.016 µg/mL (≈ 0.0194 µM); against M. avium 104 (setting [8]), 0.25 µg/mL (≈ 0.304 µM); in the data set with Escherichia coli DH5α (Escherichia coli), 12.5 µg/mL (≈ 15.2 µM). Moreover, the MIC against M. tuberculosis H37Rv (setting [9]) worked out at 0.004 µg/mL (≈ 0.00486 µM); in the data set with M. tuberculosis H37Rv (setting [10]), 0.004 µg/mL (≈ 0.00486 µM); in the data set with M. bovis BCG Tokyo 172 [2] (setting [6]) it was 0.01 µg/mL (≈ 0.0122 µM).

Regarding `CC(=O)N[C@@H]1[C@@H](O)[C@H](O)[C@@H](CO)O[C@@H]1O` [GlcNAc, N-acetyl-D-glucosamine], the “Inhibition of PTA enzyme activity (in words)” value in [1] was “not sufficient to inhibit enzyme activity”. In addition, the MIC in the data set on M. smegmatis mc^2 155, in the data set with OCT313-resistant BCG, in the data set with Staphylococcus aureus, in the data set on M. bovis, in the data set on M. avium 104 and against Escherichia coli DH5α was >1,000 μg/mL in each case. The MIC against M. tuberculosis H37Rv and against M. bovis BCG Tokyo 172 [2] was >1,000 μg/mL in each case.

For the compound `NNC(=O)c1ccncc1` [INH, isoniazid], in the data set on M. bovis BCG Tokyo 172 [4], the “Antibacterial activity” value is “showed reduced activity”. In addition, the 85% survival conc. is 250 µg/mL in the data set with MRC-5, 100 µg/mL with THP-1 and 1,000 μg/mL in the data set with A549. Further, the LC50/MIC with MRC-5 is reported as 7,325; with THP-1, 53,613; in the data set with A549, 77,277. Besides, the MIC in the data set with M. smegmatis mc^2 155 (setting [5]) is 3.13 µg/mL (≈ 22.8 µM); in the data set on OCT313-resistant BCG (setting [6]), 0.04 µg/mL (≈ 0.292 µM); against Staphylococcus aureus (Staphylococcus aureus) it was above 100 µg/mL; in the data set on M. bovis (setting [7]) it was 0.04 µg/mL (≈ 0.292 µM); against M. avium 104 (setting [8]), 1.56 µg/mL (≈ 11.4 µM); against Escherichia coli DH5α (Escherichia coli), above 100 µg/mL. Moreover, the MIC in the data set with M. tuberculosis H37Rv (setting [9]), in the data set on M. tuberculosis H37Rv (setting [10]) and in the data set on M. bovis BCG Tokyo 172 [2] (setting [6]) was 0.04 µg/mL (≈ 0.292 µM) each time.

On to `Cc1ncc([N+](=O)[O-])n1CCO` [MTZ, metronidazole], for which the “Antibacterial activity” value with M. bovis BCG Tokyo 172 [4] was “showed antibacterial activity”.

In the case of `[H]/N=C(/N)N[C@H]1[C@H](O)[C@@H](O)[C@H](O[C@@H]2O[C@@H](C)[C@](O)(C=O)[C@H]2O[C@@H]2O[C@@H](CO)[C@H](O)[C@@H](O)[C@@H]2NC)[C@@H](N/C(N)=N\[H])[C@@H]1O` [SM, streptomycin], the 85% survival conc. was 1,000 μg/mL in the data set with MRC-5, 100 µg/mL in the data set on THP-1 and 5,000 μg/mL in the data set on A549. Besides, the LC50/MIC in the data set with MRC-5 is 4,175; in the data set with THP-1, 17,908; with A549, 31,350. Further, the MIC with M. smegmatis mc^2 155 (setting [5]) was determined as 0.39 µg/mL (≈ 0.671 µM); with OCT313-resistant BCG (setting [6]) it was 0.2 µg/mL (≈ 0.344 µM); against Staphylococcus aureus (Staphylococcus aureus), 6.25 µg/mL (≈ 10.7 µM); against M. bovis (setting [7]) it was 0.2 µg/mL (≈ 0.344 µM); in the data set with M. avium 104 (setting [8]), 3.13 µg/mL (≈ 5.38 µM); in the data set with Escherichia coli DH5α (Escherichia coli) it was 25 µg/mL (≈ 43 µM). In addition, the MIC was found to be 0.4 µg/mL (≈ 0.688 µM) with M. tuberculosis H37Rv (setting [9]), 0.39 µg/mL (≈ 0.671 µM) against M. tuberculosis H37Rv (setting [10]) and 0.2 µg/mL (≈ 0.344 µM) against M. bovis BCG Tokyo 172 [2] (setting [6]).

As usually defined, the IC50 is the concentration that inhibits the measured activity by half. In the case of `CC(=O)N[C@@H]1[C@@H](O)[C@H](O)[C@@H](CO)O[C@H]1SC(=S)N(C)C` [OCT313, 2-acetamido-2-deoxy-β-D-glucopyranosyl N,N-dimethyldithiocarbamate], the results for the IC50 (in data set [1]; on L. mesenteroides PTA) were 2.79 µM and above 1000 µM, respectively. The “Inhibition pattern (Lineweaver-Burk plots)” value in data set [1] is given as “mixed inhibition”. Further, the “Antibacterial activity” value in the data set on M. bovis BCG Tokyo 172 [4] is on record as “susceptible to OCT313 in a dose-dependent manner”. Moreover, the 85% survival conc. in the data set with MRC-5 is 2,500 μg/mL; in the data set on THP-1, 1,250 μg/mL; with A549 it was 500 µg/mL. Moreover, the “Change of 50% lethal concentration (LD50) by sugar derivatization” value in the data set on MRC-5 was determined as 550 fold; in the data set with THP-1, 27 fold; in the data set with A549, 196 fold. Moreover, the LC50/MIC with MRC-5 was found to be 242; with THP-1 it was 356; in the data set with A549, 188. Further, the MIC was above 100 µg/mL in the data set with M. smegmatis mc^2 155 (setting [5]); above 100 µg/mL in the data set on OCT313-resistant BCG (Mycobacterium tuberculosis variant bovis BCG, BCG); above 200 µg/mL in the data set on OCT313-resistant BCG (setting [6]); above 100 µg/mL against Staphylococcus aureus (Staphylococcus aureus); 31.3 µg/mL (≈ 96.5 µM) against M. bovis (setting [7]); above 100 µg/mL against M. avium 104 (setting [8]). In addition, the MIC was above 100 µg/mL in the data set with Escherichia coli DH5α (Escherichia coli), 25 µg/mL (≈ 77.1 µM) with M. tuberculosis H37Rv (setting [9]), 25 µg/mL (≈ 77.1 µM) against M. tuberculosis H37Rv (setting [10]) and 12.5 µg/mL (≈ 38.5 µM) with M. bovis BCG Tokyo 172 [2] (setting [6]).

Consider `CCN1C(=O)C=CC1=O` [NEM, N-ethylmaleimide], for which the figures for the IC50 (in data set [1]; on L. mesenteroides PTA) were 14.5 µM and 50.9 µM, respectively.

Source of the values: publication PMC12724200 (mSphere, 2025).
